Reference: patent US20250154198A1, “PEPTIDE INHIBITORS OF INTERLEUKIN-23 RECEPTOR” (Zealand Pharma A/S, priority 2021, published 2025)
Where two headings read alike, the source gives them in different places. *1 amine or outer side, *2 acyl side, *3 side chain or, on linkers, in order; H or OH if unused. Where a SMILES comes first, the peptide text is derived from it. Bridges are numbered along the chain shown (N, C = ends). [ ]: non-standard residue; d: D form. Phe(4-NH2) = Nc1ccc(C[C@H](N)C(=O)O)cc1; 2Nal = N[C@@H](Cc1ccc2ccccc2c1)C(=O)O; AEF = NCCOc1ccc(C[C@H](N)C(=O)O)cc1; αMeL = CC(C)C[C@](C)(N)C(=O)O; CH2COCH2 = O=C(C[*:1])C[*:2]; 3Amb = NCc1cccc(C(=O)O)c1

Key:
[1] = target: T1, human IL-23R (Homo sapiens, UniProt Q5VWK5); assay: Binding assay (NanoBRET displacement of fluorophore-labelled reference compound) for estimating binding affinity to human IL-23R
T1 construct: UniProtKB—Q5VWK5, amino acids 22-629; secretion signal of the plasmid (Promega N1371); expressed in transfected cells
T1 sequence (Q5VWK5 22-629): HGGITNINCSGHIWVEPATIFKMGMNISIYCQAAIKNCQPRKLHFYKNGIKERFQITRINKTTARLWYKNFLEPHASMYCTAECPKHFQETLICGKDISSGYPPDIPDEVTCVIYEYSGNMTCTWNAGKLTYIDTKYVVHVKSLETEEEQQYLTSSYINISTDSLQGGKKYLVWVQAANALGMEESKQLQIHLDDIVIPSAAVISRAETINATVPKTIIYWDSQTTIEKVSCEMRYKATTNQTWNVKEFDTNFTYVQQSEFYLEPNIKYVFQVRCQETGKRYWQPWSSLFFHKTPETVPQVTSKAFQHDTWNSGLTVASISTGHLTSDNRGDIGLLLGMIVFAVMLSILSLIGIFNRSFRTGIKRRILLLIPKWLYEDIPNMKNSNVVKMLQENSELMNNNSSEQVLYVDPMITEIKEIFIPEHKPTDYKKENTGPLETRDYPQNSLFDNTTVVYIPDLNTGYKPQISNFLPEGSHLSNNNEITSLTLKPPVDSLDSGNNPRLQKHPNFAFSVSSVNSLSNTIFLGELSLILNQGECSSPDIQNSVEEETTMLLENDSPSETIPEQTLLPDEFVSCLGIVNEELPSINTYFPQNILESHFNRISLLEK

[2] = Peptide stability in simulated gastric fluid (SGF); assay type: in vitro ADME; details: pig, Table 3-3, porcine pepsin, pH 1.2, 37° C., 10 μM; for remaining at 1 h, 10 μM: read-out: SGF (% remaining 1 h); for remaining at 4 h, 10 μM: read-out: SGF (% remaining 4 h)
Procedure: Determination of Peptide Stability in Simulated Gastric Fluid (SGF) and Simulated Intestinal Fluid (SIF)
SGF was prepared by dissolving sodium chloride (0.2 g) in 50 mL of water. A volume of 0.7 mL of 10 M HCl was added to adjust the pH of the solution to 1.2 and the volume made up to 100 mL with water. […] SIF was prepared by dissolving monobasic potassium phosphate (0.68 g) in 50 mL of water and adjusting the pH to 6.8 with 1 M NaOH. The volume was subsequently made up to 100 mL with water. 200 mg porcine pancreatin (P1625, Sigma Aldrich) was gently dissolved into 20 mL preheated (37° C.) solution (10 g/L) immediately prior to the incubation.
The incubation was performed at 37° C. with gentle shaking. […] After the last timepoint, the sampling plate was mixed for 10 min on a shaking table and centrifuged 10 min at 2200 g. 70 μL resulting supernatant was diluted with 150 μL water, mixed and centrifugated before analysis by liquid chromatography high resolution mass spectrometry. […] Percent remaining at each timepoint was calculated relative to timepoint zero based on absolute peak areas.

[3] = Peptide stability in simulated intestinal fluid (SIF); assay type: in vitro ADME; details: pig, Table 3-2, porcine pancreatin, pH 6.8, 37° C., 10 μM; for remaining at 1 h, 10 μM: read-out: SIF (% remaining 1 h); for remaining at 4 h, 10 μM: read-out: SIF (% remaining 4 h)
How it was run: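 Peptides incubated at 37°C with gentle shaking in SGF (NaCl, HCl, pH 1.2) or SIF (phosphate pH 6.8 with 10 g/L porcine pancreatin). Samples analysed by LC-HRMS; percent remaining at each timepoint calculated from absolute peak areas relative to time zero.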

[4] = Table 3-1, read-out: Ki hIL-23R
[5] = simulated gastric fluid (SGF) with porcine pepsin
[6] = simulated intestinal fluid (SIF) with porcine pancreatin

Ki [1, 4] [nM]	remaining at 4 h, 10 μM [2, 5] [%]	remaining at 1 h, 10 μM [3, 6] [%]	remaining at 4 h, 10 μM [3, 6] [%]	remaining at 1 h, 10 μM [2, 5] [%]	SMILES	Ki [1] [nM]	remaining at 1 h, 10 μM [2] [%]	remaining at 4 h, 10 μM [2] [%]	remaining at 1 h, 10 μM [3] [%]	remaining at 4 h, 10 μM [3] [%]
1.4	–	0	0	90	CC(C)C[C@@H]1NC(=O)[C@H](Cc2ccc3ccccc3c2)NC(=O)[C@H](Cc2ccc(OCCN)cc2)NC(=O)[C@@H]2CSCC(=O)CSC[C@H](NC(=O)[C@H](CO)NC(=O)c3cccc(c3)CNC(=O)CC[C@@H](C(=O)N[C@@H](CCCNC(=N)N)C(N)=O)NC1=O)C(=O)N[C@@H](Cc1c[nH]c3ccccc13)C(=O)N[C@@H](CCC(N)=O)C(=O)N2 [Compound 39, [(3-Aminomethyl)benzoyl](1c)*SC(2a)WQC(2a)[Y(2-aminoethoxy)][2-Nal]LE(1c)R-[NH2]] ([3Amb]SCWQC[AEF][2Nal]LER-NH2; linker 3-6 via CH2COCH2; lactam N-10)	–	–	–	–	–
4.87	73	79	–	–	CC(C)C[C@]1(C)NC(=O)[C@H](Cc2ccc3ccccc3c2)NC(=O)[C@H](Cc2ccc(OCCN)cc2)NC(=O)[C@@H]2CSCC(=O)CSC[C@H](NC(=O)[C@H](CO)NC(=O)c3cccc(c3)CNC(=O)CC[C@@H](C(=O)N[C@@H](CO)C(N)=O)NC1=O)C(=O)N[C@@H](Cc1c[nH]c3ccccc13)C(=O)N[C@@H](CCC(N)=O)C(=O)N2 [Compound 44, [(3-Aminomethyl)benzoyl](1c)*SC(2a)WQC(2a)[Y(2-aminoethoxy)][2-Nal][2-Me-Leu]E(1c)S-[NH2]]	–	–	–	–	–
12	84	–	34	76	CC(C)C[C@]1(C)NC(=O)[C@H](Cc2ccc3ccccc3c2)NC(=O)[C@H](Cc2ccc(OCCN)cc2)NC(=O)[C@@H]2CSCC(=O)CSC[C@H](NC(=O)[C@H](CO)NC(=O)c3cccc(c3)CNC(=O)CC[C@@H](C(=O)N[C@@H](Cc3ccc(N)cc3)C(N)=O)NC1=O)C(=O)N[C@@H](Cc1c[nH]c3ccccc13)C(=O)N[C@@H](CCC(N)=O)C(=O)N2 [Compound 45, [(3-Aminomethyl)benzoyl](1c)*SC(2a)WQC(2a)[Y(2-aminoethoxy)][2-Nal][2-Me-Leu]E(1c)[F(4-NH2)]-[NH2]] ([3Amb]SCWQC[AEF][2Nal][αMeL]E[Phe(4-NH2)]-NH2; linker 3-6 via CH2COCH2; lactam N-10)	–	–	–	–	–

The remaining lines, values behind:

SMILES	Ki [1, 4] [nM]	remaining at 4 h, 10 μM [2, 5] [%]	remaining at 1 h, 10 μM [3, 6] [%]	remaining at 4 h, 10 μM [3, 6] [%]	remaining at 1 h, 10 μM [2, 5] [%]	Ki [1] [nM]	remaining at 1 h, 10 μM [2] [%]	remaining at 4 h, 10 μM [2] [%]	remaining at 1 h, 10 μM [3] [%]	remaining at 4 h, 10 μM [3] [%]
CC(C)C[C@@H]1NC(=O)[C@H](Cc2c[nH]c3ccccc23)NC(=O)[C@H](Cc2c[nH]c3ccccc23)NC(=O)[C@@H]2CSCC(=O)CSC[C@H](NC(=O)[C@H](CO)NC(=O)[C@@H](NC(=O)[C@@H](N)CC(C)C)CSCC(=O)CSC[C@@H](C(=O)N[C@@H](CCCNC(=N)N)C(N)=O)NC1=O)C(=O)N[C@@H](Cc1c[nH]c3ccccc13)C(=O)N[C@@H](CCC(N)=O)C(=O)N2 [Compound 2, H-LC(1a)SC(2a)WQC(2a)WWLC(1a)R-[NH2]] (HELM PEPTIDE1{L.C.S.C.W.Q.C.W.W.L.C.R.[am]}|CHEM1{[O=C(C[*:1])C[*:2]]}|CHEM2{[O=C(C[*:1])C[*:2]]}$PEPTIDE1,CHEM1,2:R3-1:R1|PEPTIDE1,CHEM1,11:R3-1:R2|PEPTIDE1,CHEM2,4:R3-1:R1|PEPTIDE1,CHEM2,7:R3-1:R2$$$V2.0)	–	–	–	–	–	32.3	6	1	0	0
CC(C)C[C@]1(C)NC(=O)[C@H](Cc2ccc3ccccc3c2)NC(=O)[C@H](Cc2ccc(OCCN)cc2)NC(=O)[C@@H]2CSCC(=O)CSC[C@H](NC(=O)[C@H](CO)NC(=O)c3cccc(c3)CNC(=O)CC[C@@H](C(=O)N[C@@H](CCCNC(=N)N)C(N)=O)NC1=O)C(=O)N[C@@H](Cc1c[nH]c3ccccc13)C(=O)N[C@@H](CCC(N)=O)C(=O)N2 [Compound 38, [(3-Aminomethyl)benzoyl](1c)*SC(2a)WQC(2a)[Y(2-aminoethoxy)][2-Nal][2-Me-Leu]E(1c)R-[NH2]] ([3Amb]SCWQC[AEF][2Nal][αMeL]ER-NH2; linker 3-6 via CH2COCH2; lactam N-10)	2.56	84	29	5	–	–	–	–	–	–
